Data set [1] is described as follows: In vivo inhibition of ATX in lung homogenate of BLM induced C57BL/6J mouse lung fibrosis model assessed as reduction in ATX activity using FS-3 as substrate at 30 mg/kg, ip by fluorescence based microplate reader analysis (reference value: 7.78%). In kind it is functional.
A short description of data set [2]: AUC (0 to t) in rat at 60 mg/kg, po by LC-MS/MS analysis. Type of data set: ADME, organism-based. Further details: dose 60 mg/kg, route po. Conditions: in vivo.
Data set [3] in a line: Cytotoxicity against human HBE cells assessed as lethal dose. In kind it is toxicity, cell-based. Conditions: HBE cells (epithelial cell line), read-out: LD50 (the source's name).
A short description of data set [4]: Half life in rat at 60 mg/kg, po by LC-MS/MS analysis. Conditions: in vivo. Type of data set: ADME, organism-based.
The nature of data set [5]: Downregulation of TGF-beta expression in lung tissue of BLM induced C57BL/6J mouse lung fibrosis model assessed as fold reduction in TGF-beta expression level at 30 to 60 mg/kg, ip by qRT-PCR analysis. In kind it is functional. The conditions noted are these: dose 30-60 mg/kg.
Data set [6] has as its system Mus musculus. Nature of the data set: Antifibrotic activity against BLM induced C57BL/6J mouse lung fibrosis model assessed as recovery of body weight at 30 to 60 mg/kg, ip pretreated with compound administered once daily for 3 days followed by BLM treatment and measured after 28 days. Conditions: dose 30-60 mg/kg, time 31.0 day. In kind it is functional, organism-based.

The next data set deals with Autotaxin (Homo sapiens, UniProt Q13822). Nature of the data set: Inhibition of human ATX using FS-3 as substrate preincubated for 45 mins followed by substrate addition measured every 1 min for 30 mins by fluorescence based microplate reader analysis.
Data set [7] relates to Mus musculus. Nature of the data set: Antifibrotic activity against BLM induced C57BL/6J mouse lung fibrosis model assessed as improvement in lung architecture by measuring appearance of fibrotic lesions at 30 to 60 mg/kg, ip pretreated with compound administered once daily for 3 days followed by BLM treatment and measured after 28 days by Masson staining based microscopic analysis. Type of data set: functional, organism-based. The conditions noted are these: dose 30-60 mg/kg, time 31.0 day.

Data set [8] has as its system Mus musculus. Nature of the data set: Antifibrotic activity against BLM induced C57BL/6J mouse lung fibrosis model assessed as improvement in lung architecture by measuring appearance of conterminous fibrotic walls at 30 to 60 mg/kg, ip pretreated with compound administered once daily for 3 days followed by BLM treatment and measured after 28 days by Masson staining based microscopic analysis. In kind it is functional, organism-based. The conditions noted are these: dose 30-60 mg/kg, time 31.0 day.

Data set [9] concerns Mus musculus. In words: Antifibrotic activity against BLM induced C57BL/6J mouse lung fibrosis model assessed as improvement in lung architecture by measuring appearance of conterminous fibrotic walls at 30 to 60 mg/kg, ip pretreated with compound administered once daily for 3 days followed by BLM treatment and measured after 28 days by hematoxylin and eosin staining based microscopic analysis. Type of data set: functional, organism-based. Conditions: dose 30-60 mg/kg, time 31.0 day.

The nature of data set [10]: Tmax in rat at 60 mg/kg, po by LC-MS/MS analysis. Type of data set: ADME, organism-based. The conditions noted are these: in vivo.
Data set [11] deals with Mus musculus. Nature of the data set: Antifibrotic activity against BLM induced C57BL/6J mouse lung fibrosis model assessed as improvement in lung architecture by measuring appearance of fibrotic lesions at 30 to 60 mg/kg, ip pretreated with compound administered once daily for 3 days followed by BLM treatment and measured after 28 days by hematoxylin and eosin staining based microscopic analysis. Type of data set: functional, organism-based. The conditions noted are these: dose 30-60 mg/kg, time 31.0 day.

The nature of data set [12]: Cmax in rat at 60 mg/kg, po by LC-MS/MS analysis. In kind it is ADME, organism-based. Further details: dose 60 mg/kg, route po. The conditions noted are these: in vivo.
A short description of data set [13]: Downregulation of IL-6 expression in lung tissue of BLM induced C57BL/6J mouse lung fibrosis model assessed as fold reduction in IL-6 expression level at 30 to 60 mg/kg, ip by qRT-PCR analysis. Type of data set: functional. The conditions noted are these: dose 30-60 mg/kg. (In general: Quantitative PCR measures a nucleic acid by following its amplification.)

Data set [14] can be described thus: In vivo inhibition of ATX in lung homogenate of BLM induced C57BL/6J mouse lung fibrosis model assessed as reduction in ATX activity using FS-3 as substrate at 60 mg/kg, ip by fluorescence based microplate reader analysis (reference value: 7.78%). Type of data set: functional.
Data set [15] in a line: In vivo inhibition of ATX in BALF of BLM induced C57BL/6J mouse lung fibrosis model assessed as reduction in ATX activity using FS-3 as substrate at 30 to 60 mg/kg, ip by fluorescence based microplate reader analysis (reference value: 4.50%). In kind it is functional, Bronchoalveolar lavage. The conditions noted are these: dose 30-60 mg/kg.
A short description of data set [16]: AUC (0 to infinity) in rat at 60 mg/kg, po by LC-MS/MS analysis. Type of data set: ADME, organism-based. Further details: time infinity, dose 60 mg/kg, route po. Conditions: in vivo.
The nature of data set [17]: Downregulation of TNF-alpha expression in lung tissue of BLM induced C57BL/6J mouse lung fibrosis model assessed as fold reduction in TNF-alpha expression level at 30 to 60 mg/kg, ip by qRT-PCR analysis. Type of data set: functional. Conditions: dose 30-60 mg/kg.
Data set [18] is described as follows: Clearance in rat at 60 mg/kg, po by LC-MS/MS analysis. Type of data set: ADME, organism-based. Conditions: in vivo.
Data set [19] deals with Mus musculus. Nature of the data set: Antifibrotic activity against BLM induced C57BL/6J mouse lung fibrosis model assessed as improvement in lung architecture by measuring appearance of conterminous fibrotic walls at 60 mg/kg, ip pretreated with compound administered once daily for 3 days followed by BLM treatment and measured after 28 days by Masson staining based microscopic analysis. In kind it is functional, organism-based. Conditions: time 31.0 day.

Data set [20] can be described thus: Downregulation of TNF-alpha expression in lung tissue of BLM induced C57BL/6J mouse lung fibrosis model assessed as fold reduction in TNF-alpha expression level at 60 mg/kg, ip by qRT-PCR analysis. In kind it is functional.
Data set [21] relates to Mus musculus. Nature of the data set: Antifibrotic activity against BLM induced C57BL/6J mouse lung fibrosis model assessed as improvement in lung architecture by measuring appearance of fibrotic lesions at 60 mg/kg, ip pretreated with compound administered once daily for 3 days followed by BLM treatment and measured after 28 days by hematoxylin and eosin staining based microscopic analysis. In kind it is functional, organism-based. Conditions: time 31.0 day.

In data set [22] the test system is Mus musculus. In words: Antifibrotic activity against BLM induced C57BL/6J mouse lung fibrosis model assessed as improvement in lung architecture by measuring appearance of fibrotic lesions at 60 mg/kg, ip pretreated with compound administered once daily for 3 days followed by BLM treatment and measured after 28 days by Masson staining based microscopic analysis. Type of data set: functional, organism-based. Conditions: time 31.0 day.

Data set [23] is described as follows: Downregulation of IL-6 expression in lung tissue of BLM induced C57BL/6J mouse lung fibrosis model assessed as fold reduction in IL-6 expression level at 60 mg/kg, ip by qRT-PCR analysis. In kind it is functional.
Data set [24] can be described thus: Downregulation of TGF-beta expression in lung tissue of BLM induced C57BL/6J mouse lung fibrosis model assessed as fold reduction in TGF-beta expression level at 60 mg/kg, ip by qRT-PCR analysis. Type of data set: functional.
For data set [25], the system named is Mus musculus. In words: Antifibrotic activity against BLM induced C57BL/6J mouse lung fibrosis model assessed as recovery of body weight at 60 mg/kg, ip pretreated with compound administered once daily for 3 days followed by BLM treatment and measured after 28 days. In kind it is functional, organism-based. The conditions noted are these: time 31.0 day.
Data set [26] deals with Mus musculus. In words: Antifibrotic activity against BLM induced C57BL/6J mouse lung fibrosis model assessed as improvement in lung architecture by measuring appearance of conterminous fibrotic walls at 60 mg/kg, ip pretreated with compound administered once daily for 3 days followed by BLM treatment and measured after 28 days by hematoxylin and eosin staining based microscopic analysis. In kind it is functional, organism-based. Conditions: time 31.0 day.

Activity calls are given as the source filed them. The rule behind the calls is not given here.

What is called inhibition in vivo is the share of the control response that was lost under treatment. For orientation: AUC(0-t) means the area under the concentration-time curve up to a stated or last time point. As a reminder, the half-life is how long it takes for the measured level to halve. Lower therefore signals rapid decline. In general, IC50 refers to the concentration at which inhibition is half-maximal. Read a low IC50 as greater potency in that assay. What is called Tmax is the time from dosing to the highest level. What is called Cmax is the maximum level reached in the sampled fluid or tissue. By AUC is commonly meant concentration integrated over time. High values mean high exposure, low ones low exposure. In the case of `CCn1cc(NC(=O)NCc2ccc(OC)c(Cl)c2)c2cc(-c3nc(CN(CCO)CCO)cs3)ccc21`, the inhibition in vivo at 30 mg/kg in data set [1] was found to be 5.59%. In data set [2], this compound registered an AUC(0-t) of 670 ng·h/mL. Besides, the CC50 in data set [3] is over 20 µM. In data set [4], this compound gave a half-life of 3.11 h. Further, the “fold change (FC)” value in [5], in [13] and in data set [17] was 2 each time. The result with Mus musculus [6], in the data set with Mus musculus [7], in the data set with Mus musculus [8], in the data set with Mus musculus [9] and with Mus musculus [11] was Active. Further, the IC50 at Autotaxin stood at 0.00217 µM. Moreover, in [10], the Tmax is 3.91 h. Further, the Cmax in [12] is 131 ng/mL. In addition, the inhibition in vivo at 60 mg/kg in [14] turned out to be 5.03%. Further, in data set [15], the “inhibition (INH)” value is given as 3.23%. The same compound returned an AUC in data set [16] of 680 ng·h/mL.
In general, CL/F refers to clearance divided by bioavailability, as obtained after extravascular dosing. In the case of `CCn1cc(NC(=O)OCc2cc(Cl)cc(Cl)c2)c2cc(-c3nc(CN4CCOCC4)cs3)ccc21`, the AUCt in data set [2] was 240 ng·h/mL. The compound further gave a half-life in data set [4] of 2.56 h. The same compound had a CL/F in data set [18] of 6.35 mL/min/kg. In data set [10], the Tmax stood at 2.67 h. Further, in [12] (read-out: Cmax), the Cmax is 50 ng/mL. The compound also registered an exposure (AUC) in [16] of 240 ng·h/mL.
Regarding `CCn1cc(NC(=O)NCc2ccc(Cl)cc2)c2cc(-c3nc(CN(CCO)CCO)cs3)ccc21`, inhibition against Autotaxin was half-maximal at 0.03 µM (IC50).
Consider `CCc1nc2c(C)cc(N3CCN(CC(=O)N4CC(O)C4)CC3)cn2c1N(C)c1nc(-c2ccc(F)cc2)c(C#N)s1` [ZIRITAXESTAT], for which the result in the data set with Mus musculus [19], with Mus musculus [21], in the data set on Mus musculus [22], with Mus musculus [25] and with Mus musculus [26] was Active. The “fold change (FC)” value in data set [20], in data set [23] and in data set [24] was 2 each time. Also, the inhibition in vivo at 60 mg/kg in data set [14] amounted to 5.54%.

The record behind these values is ChEMBL document CHEMBL5131395 (Eur J Med Chem, 2022).
